According to paper PMC11966747, “Next Generation Risk Assessment of Acute Neurotoxicity from Organophosphate Exposures Using the In Vitro–In Silico Derived Dietary Comparator Ratio” (Environmental Science & Technology, 2025):
Where two headings read alike, the source gives them in different places.

Assays:
[1] = target: T1, erythrocyte AChE (Homo sapiens, UniProt P22303); conditions: human, ref Table S2, cited from earlier work
[2] = QSAR-based prediction; ref Punt et al. 2022; Moerenhout et al. 2024; cited from earlier work
[3] = target: T1, erythrocyte AChE; test: Exposure Activity Ratio (EAR) and Dietary Comparator Ratio (DCR) calculation; set-up: from tissue; host or cells: human whole peripheral blood (erythrocytes), K2EDTA anticoagulant; conditions: human
Experimental: The DCR value for an exposure scenario was calculated as the ratio of EARtest and EARcomparator (eq 1). The EARtest is scenario-specific and was defined with the IC50 of the tested organophosphate oxon for in vitro erythrocyte AChE inhibition and the PBK model-simulated CBmaxoxon at the defined exposure level (eq 2).
The DCR-based predictions were evaluated by comparing the obtained DCR results with actual knowledge of the adverse health effects reported for the respective exposure scenarios. Adverse effects cannot be ruled out for human exposure scenarios with a DCR result greater than 1, while exposure scenarios with a DCR result less than or equal to 1 are considered to raise no safety concern.[18]−[20] Once validated as an adequate predicting tool, the DCR approach was applied for evaluating the safety of exposure scenarios, for which no information on the resulting toxic outcomes was reported at the defined dose levels for humans.

T1 sequence (P22303 32-617 isoform P22303-2 limits assumed): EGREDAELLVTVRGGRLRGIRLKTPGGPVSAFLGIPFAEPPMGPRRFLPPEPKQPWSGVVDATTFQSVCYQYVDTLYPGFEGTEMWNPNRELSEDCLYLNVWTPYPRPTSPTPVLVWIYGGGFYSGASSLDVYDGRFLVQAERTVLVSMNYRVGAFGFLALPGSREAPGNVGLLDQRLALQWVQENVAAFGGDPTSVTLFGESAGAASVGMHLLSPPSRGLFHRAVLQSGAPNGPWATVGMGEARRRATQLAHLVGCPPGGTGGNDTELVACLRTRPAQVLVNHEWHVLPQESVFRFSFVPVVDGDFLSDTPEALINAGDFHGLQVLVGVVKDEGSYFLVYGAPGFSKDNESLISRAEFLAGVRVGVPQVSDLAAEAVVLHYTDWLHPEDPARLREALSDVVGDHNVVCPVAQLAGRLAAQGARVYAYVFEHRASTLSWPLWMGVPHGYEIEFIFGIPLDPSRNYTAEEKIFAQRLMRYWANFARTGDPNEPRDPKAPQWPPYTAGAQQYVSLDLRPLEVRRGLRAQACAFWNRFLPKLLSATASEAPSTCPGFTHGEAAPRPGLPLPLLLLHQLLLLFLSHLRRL

COP(=S)(OC)Oc1ccc([N+](=O)[O-])c(C)c1 [fenitrothion]
reported or expected adverse health outcome ([1]; single oral 143 mg/kg BW, listed as Fenitrothion, 143 mg/kg): Yes
reported or expected adverse health outcome ([1]; single oral 214 mg/kg BW, 214 mg/kg): positive
reported or expected adverse health outcome ([1]; single oral 214 mg/kg BW, listed as Fenitrothion, 214 mg/kg): Yes
reported or expected adverse health outcome ([1]; single oral 357 mg/kg BW, 357 mg/kg): positive
reported or expected adverse health outcome ([1]; single oral 357 mg/kg BW, listed as Fenitrothion, 357 mg/kg): Yes
reported or expected adverse health outcome ([1]; single oral 429 mg/kg BW, 429 mg/kg): positive
reported or expected adverse health outcome ([1]; single oral 429 mg/kg BW, listed as Fenitrothion, 429 mg/kg): Yes
reported or expected adverse health outcome ([1]; single oral 500 mg/kg BW, 500 mg/kg): positive
reported or expected adverse health outcome ([1]; single oral 500 mg/kg BW, listed as Fenitrothion, 500 mg/kg): Yes
reported or expected adverse health outcome ([1]; single oral 536 mg/kg BW, 536 mg/kg): positive
reported or expected adverse health outcome ([1]; single oral 536 mg/kg BW, listed as Fenitrothion, 536 mg/kg): Yes
reported or expected adverse health outcome ([1]; single oral 571 mg/kg BW, 571 mg/kg): positive
reported or expected adverse health outcome ([1]; single oral 571 mg/kg BW, listed as Fenitrothion, 571 mg/kg): Yes
reported or expected adverse health outcome ([1]; single oral 1714 mg/kg BW, 1714 mg/kg): positive
reported or expected adverse health outcome ([1]; single oral 1714 mg/kg BW, listed as Fenitrothion, 1714 mg/kg): Yes
reported or expected adverse health outcome ([1]; single oral 1786 mg/kg BW, 1786 mg/kg): positive
reported or expected adverse health outcome ([1]; single oral 1786 mg/kg BW, listed as Fenitrothion, 1786 mg/kg): Yes
Oral absorption rate constant [2]: 0.58 h⁻¹
calculated DCR value ([3]; single oral 0.042 mg/kg BW): 0.17
calculated EARtest value ([3]; single oral 0.042 mg/kg BW): 6.8 × 10^–3
calculated DCR value ([3]; single oral 0.06 mg/kg BW): 0.25
calculated EARtest value ([3]; single oral 0.06 mg/kg BW): 9.7 × 10^–3
calculated DCR value ([3]; single oral 0.083 mg/kg BW): 0.34
calculated EARtest value ([3]; single oral 0.083 mg/kg BW): 0.013
calculated DCR value ([3]; single oral 0.09 mg/kg BW): 0.37
calculated EARtest value ([3]; single oral 0.09 mg/kg BW): 0.015
calculated DCR value ([3]; single oral 0.17 mg/kg BW): 0.70
calculated EARtest value ([3]; single oral 0.17 mg/kg BW): 0.028
calculated DCR value ([3]; single oral 0.18 mg/kg BW): 0.74
calculated EARtest value ([3]; single oral 0.18 mg/kg BW): 0.029
calculated DCR value ([3]; single oral 0.25 mg/kg BW): 1.0
calculated EARtest value ([3]; single oral 0.25 mg/kg BW): 0.041
calculated DCR value ([3]; single oral 0.33 mg/kg BW): 1.4
calculated EARtest value ([3]; single oral 0.33 mg/kg BW): 0.054
calculated DCR value ([3]; single oral 0.36 mg/kg BW): 1.5
calculated EARtest value ([3]; single oral 0.36 mg/kg BW): 0.059
calculated DCR value ([3]; single oral 36 mg/kg BW): 174
calculated EARtest value ([3]; single oral 36 mg/kg BW): 6.89
calculated DCR value ([3]; single oral 71 mg/kg BW): 346
calculated EARtest value ([3]; single oral 71 mg/kg BW): 13.66
calculated DCR value ([3]; single oral 143 mg/kg BW): 610
calculated EARtest value ([3]; single oral 143 mg/kg BW): 24.10
calculated DCR value ([3]; single oral 214 mg/kg BW): 811
calculated EARtest value ([3]; single oral 214 mg/kg BW): 32.03
calculated DCR value ([3]; single oral 357 mg/kg BW): 1189
calculated EARtest value ([3]; single oral 357 mg/kg BW): 46.93
calculated DCR value ([3]; single oral 429 mg/kg BW): 1364
calculated EARtest value ([3]; single oral 429 mg/kg BW): 53.86
calculated DCR value ([3]; single oral 500 mg/kg BW): 1526
calculated EARtest value ([3]; single oral 500 mg/kg BW): 60.24
calculated DCR value ([3]; single oral 536 mg/kg BW): 1604
calculated EARtest value ([3]; single oral 536 mg/kg BW): 63.31
calculated DCR value ([3]; single oral 571 mg/kg BW): 1677
calculated EARtest value ([3]; single oral 571 mg/kg BW): 66.18
calculated DCR value ([3]; single oral 1714 mg/kg BW): 3037
calculated EARtest value ([3]; single oral 1714 mg/kg BW): 119.90
calculated DCR value ([3]; single oral 1786 mg/kg BW): 3078
calculated EARtest value ([3]; single oral 1786 mg/kg BW): 121.49
